Tested on: spontaneously hypertensive (SHR) male rats
Assay: Blood pressure in SHR rats after single PO administration
Format: in vivo, rat
Conditions: 3 mg kg−1 per os once

COc1cc2nc(N3CCN(C(=O)C4CCCO4)CC3)nc(N)c2cc1OC (centres unmarked) [compound 74, terazosin]
systolic BP lowering effect in comparison with the vehicle at 120 min (120 min time point): no statistically significant activity | systolic BP decrease in comparison with corresponding vehicle groups (after 15 min and 60 min of treatment): significant systolic BP decrease
